Converted amounts (≈) assume the structure as drawn. Read-outs that look alike come from different tables or passages of the source.
Assays:
HepG2 cells = assay: In vitro cytotoxicity assay (resazurin); format: cell-based; conditions: for toxicity: up to 31.3 j·tg mL^−1, 24 h; for cell survival: at 31.3 j·tg mL^−1
Description: The antifungal agent amphotericin B (AmB) was purchased from VWR (Radnor PA, USA). AmB was dissolved in DMSO at a final concentration of 5 mg/mL and was stored at −20° C., protected from light. […] For cytotoxicity assays, HepG2 and the mouse macrophage cell line J774A.1 were obtained from University of Kentucky. […] Mammalian cells were grown in Dulbecco's Modified Eagle's Medium (DMEM) (from VWR) with 10% fetal bovine serum (FBS) (from VWR) and 1% Pen/Strep (from ATCC). Cell lines were cultured at 37° C. with 5% CO2 and passaged by trypsinization with 0.05% trypsin: 0.53 mM EDTA (from Sigma-Aldrich).
Cytotoxicity assays were performed as previously described with slight modifications.^3 HepG2, J774A.1, and HEK-293 cells were first thawed from frozen stocks kept in liquid N2 and grown in Dulbecco's modified Eagles's medium (DMEM) containing 10% fetal bovine serum (FBS) and 1% Pen/Strep. […] The 96-well plates were incubated 37° C. with 5% CO2 overnight. […] The medium in the 96-well plates containing the cells was aspirated and replaced by fresh DMEM (100 μL). […] The 96-well plates were further incubated for 24 h at 37° C. with 5% CO2 overnight. To evaluate cell survival, each well was treated with 10 μL (2 mM) of resazurin sodium salt (Sigma-Aldrich, St. Louis, MO, USA) and was incubated for another 6 h. Metabolically active cells can convert resazurin to the highly fluorescent dye, resorufin, and be detected at ?560 excitation and λ590 emission using a SpectraMax M5 plate reader (Molecular Devices, San Jose, CA, USA). Triton X-100® (1%, v/v) was used as positive control; the negative control consisted of cells treated with the delivery vehicle (0.05% DMSO), and the blank control was only the culture medium with 0.05% DMSO without cells. The experiments were performed in quadruplicate.

[1] = system: C. albicans ATCC 10231 (strain A); assay: Time-kill assay; format: cell-based, Candida albicans; conditions: at 4×MIC; CFU at 0-24 h
Description: Compounds were then added to the fungal cells. […] Experiments were performed in duplicate.

[2] = system: Saccharomyces cerevisiae AR Bank #400; assay: MIC determination by in vitro antifungal assay; format: cell-based
Description: The antifungal agent amphotericin B (AmB) was purchased from VWR (Radnor PA, USA). AmB was dissolved in DMSO at a final concentration of 5 mg/mL and was stored at −20° C., protected from light. Candida albicans American Type Culture Collection (ATCC) 10231 (strain A), C. albicans ATCC 64124 (B), and C. albicans ATCC MYA-2876 (C) were obtained from Utah State University. C. albicans ATCC 90819 (D), C. albicans ATCC MYA-2310 (E), C. albicans ATCC MYA-1237 (F), C. albicans ATCC MYA-1003 (G), Candida glabrata ATCC 2001 (H), Candida krusei ATCC 6258 (I), Candida parapsilosis ATCC 22019 (J), Cryptococcus neoformans ATCC MYA-895 (M), Aspergillus terreus ATCC MYA-3633 (N), and Aspergillus flavus ATCC MYA-3631 (0) were obtained from the American Type Culture Collection (ATCC; Manassas, VA, USA). Aspergillus nidulans ATCC 38163 (P) was obtained from University of Kentucky. Clinically derived Aspergillus fumigatus NRRL 163 (Q), A. fumigatus NRRL 5109 (R), and A. fumigatus NRRL 6113 (S) were obtained from Northern Regional Research Laboratory (NRRL). Candida auris 384 (K), C. auris 390 (L), and fungal strains 381-400 (including 10 C. auris (AR Bank #381-390), 3 Candida duobushaemulonii (AR Bank #391, AR Bank #392, and AR Bank #394), 2 Candida haemulonii (AR Bank #393 and AR Bank #395), 1 Kodameae ohmeri (AR Bank #396), 1 C. krusei (AR Bank #397), 1 Candida lusitaniae (AR Bank #398), and 2 Saccharomyces cerevisiae strains (AR Bank #399 and AR Bank #400)) were part of a larger fungal library from the AR Bank maintained by the Centers for Disease Control and Prevention (CDC; Atlanta, GA, USA). Filamentous fungi and yeasts were cultivated at 35° C. in RPMI 1640 medium (with L-glutamine, without sodium bicarbonate, Sigma-Aldrich, St. Louis, MO) buffered to a pH of 7.0 with 0.165 M morpholinepropanesulfonic acid (MOPS) buffer (Sigma-Aldrich). For cytotoxicity assays, HepG2 and the mouse macrophage cell line J774A.1 were obtained from University of Kentucky. The human embryonic kidney cell line, HEK-293, was bought from the ATCC. Mammalian cells were grown in Dulbecco's Modified Eagle's Medium (DMEM) (from VWR) with 10% fetal bovine serum (FBS) (from VWR) and 1% Pen/Strep (from ATCC). Cell lines were cultured at 37° C. with 5% CO2 and passaged by trypsinization with 0.05% trypsin: 0.53 mM EDTA (from Sigma-Aldrich).
From the actively growing yeast culture, 100 µL were then transferred to 900 μL of RPMI 1640 medium and re-adjusted to achieve OD600 of 0.12 (˜1×10^6 CFU/mL). The cell suspension was further diluted to achieve 1:100 in RPMI 1640 medium.

| Structure (SMILES) | toxicity (HepG2 cells) | further results |
| --- | --- | --- |
| O=C(NNc1cccc(Cl)c1)c1ccccn1 [Compound 2b] | no toxicity | fungistatic or fungicidal behavior in time-kill assay [1]: fungistatic |
| COc1cccc(NNC(=O)c2cnccn2)c1 [Compound 9c] | no toxicity | MIC ([2]; read-out: MIC): 3.9 µg/mL (≈ 16 µM) |
| O=C(NNc1cccc(F)c1)c1ccccn1 [Compound 2a] | no toxicity | – |
| O=C(NNc1cc(F)cc(F)c1)c1ccccn1 [Compound 2i] | – | cell survival (HepG2 cells): 89% |
| O=C(NNc1ccc(F)cc1F)c1cnccn1 [Compound 9g] | no toxicity | – |
| COc1cccc(NNC(=O)c2ccccn2)c1 [Compound 2c] | – | MIC [2]: 7.8 μg/mL^−1 |
| O=C(NNc1ccc(F)cc1F)c1ccccn1 [Compound 2g] | no toxicity | – |
| O=C(NNc1ccc(Cl)cc1)c1cnccn1 [Compound 9e] | – | MIC [2]: 3.9 μg/mL^−1 |
| O=C(NNc1ccc(F)cc1)c1ccccn1 [Compound 2d] | no toxicity | – |
| O=C(NNc1cccc(F)c1)c1cnccn1 [Compound 9a] | – | cell survival (HepG2 cells): 94% |
| O=C(NNc1cc(Cl)cc(Cl)c1)c1ccccn1 [Compound 2j] | – | MIC ([2]; read-out: MIC): 3.9 µg/mL (≈ 13.8 µM) |
| COc1ccc(NNC(=O)c2cnccn2)cc1 [Compound 9f] | no toxicity | – |
| O=C(NNc1cccc(Cl)c1)c1cnccn1 [Compound 9b] | no toxicity | – |

From patent publication US20240425464A1, “Substituted Monohydrazides as Potent Antifungal Agents” (University of Kentucky Research Foundation, priority 2023, published 2024)
